In article PMC8646129 (Biochemistry and Biophysics Reports, 2021):

Molecular target: T1, TMEM16B (Mus musculus, UniProt Q8CFW1)
T1 sequence (Q8CFW1 1-1002): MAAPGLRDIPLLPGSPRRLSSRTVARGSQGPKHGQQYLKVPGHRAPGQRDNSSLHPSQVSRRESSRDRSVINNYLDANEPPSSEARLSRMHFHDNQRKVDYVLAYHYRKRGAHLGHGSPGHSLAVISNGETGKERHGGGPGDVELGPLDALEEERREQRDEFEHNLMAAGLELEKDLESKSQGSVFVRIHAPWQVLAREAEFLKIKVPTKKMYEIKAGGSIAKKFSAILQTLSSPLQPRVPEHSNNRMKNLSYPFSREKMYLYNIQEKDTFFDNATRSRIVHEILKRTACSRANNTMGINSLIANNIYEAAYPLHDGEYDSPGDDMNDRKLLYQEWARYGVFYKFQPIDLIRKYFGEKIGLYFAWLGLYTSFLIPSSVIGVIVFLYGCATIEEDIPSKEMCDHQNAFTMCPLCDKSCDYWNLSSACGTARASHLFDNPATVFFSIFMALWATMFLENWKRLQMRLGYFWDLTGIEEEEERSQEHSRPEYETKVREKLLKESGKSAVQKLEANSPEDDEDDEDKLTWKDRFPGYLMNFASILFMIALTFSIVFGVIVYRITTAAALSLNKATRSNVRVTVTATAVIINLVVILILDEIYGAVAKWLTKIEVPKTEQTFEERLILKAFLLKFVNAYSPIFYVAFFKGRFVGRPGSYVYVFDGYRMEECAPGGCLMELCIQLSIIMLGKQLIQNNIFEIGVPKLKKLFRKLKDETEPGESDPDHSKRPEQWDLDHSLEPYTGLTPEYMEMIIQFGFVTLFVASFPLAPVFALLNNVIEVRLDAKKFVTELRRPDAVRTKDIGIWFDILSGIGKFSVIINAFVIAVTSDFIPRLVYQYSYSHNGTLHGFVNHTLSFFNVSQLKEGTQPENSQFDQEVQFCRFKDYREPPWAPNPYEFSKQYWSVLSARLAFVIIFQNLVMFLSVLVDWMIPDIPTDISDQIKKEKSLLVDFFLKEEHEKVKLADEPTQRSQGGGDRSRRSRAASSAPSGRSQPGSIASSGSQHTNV
Experiment: whole-cell patch clamp of transfected HEK293 cells
Format: cell-based

EC50: 0.0242 µM
Compound: O=C(NC1(c2ccccc2)CC1)c1c(CN2CCC(N3CCCCC3)CC2)c(-c2cccc(C(F)(F)F)c2)nc2cc(Br)ccc12 [GSKb, GSK2193874]
